Data on two compounds can be found in article PMC9952391, “The Role of Acetyl Zingerone and Its Derivatives in Inhibiting UV-Induced, Incident, and Delayed Cyclobutane Pyrimidine Dimers” (Antioxidants, 2023).

The subject of experiment [1] is incident CPDs (iCPDs) in NBHF cells. Description: iCPD assessment by DNA ELISA after ssUV, NBHF. The conditions noted are these: for Blockade of iCPDs: 24 h preincubation; for iCPD inhibition across doses: various doses, Figure 3C / Supplementary Figure S2B. It is filed as cell-based, human. From the text:
(§1) For UV exposures, we used a “SOL-UV6 ultraviolet solar simulator” from Newport irradiators. It is equipped with a Xenon arc lamp where the output is varied using the integrated variable attenuator aperture, which provides the ability to vary the output from 10% to 100% of the maximum available solar constants. The output spectrum is flat from 320 nm to 400 nm and no values are below 300 nm. This is abbreviated as “ssUV” for “solar-simulated UV” throughout the text. Various cell types seeded at ~50% confluency, were treated with the AZ and analogs at concentrations mentioned in the data figures for 24–h. Cells at ~80–90% confluency (untreated controls), were washed twice with PBS and exposed to 18 kJ/m^2 of ssUV in minimal amount of PBS (ex. 2 mL PBS in a 60 mm cell culture dish) without any dish lid in place. […] The ssUV apparatus was monitored almost daily using UV meters for any emissions below 300 nm. The dose was decided based upon the 80–90% cell survival post UV exposure. After exposure, one time point was collected immediately to assess iCPDs, whereas more dishes were incubated in cell culture medium, inside the cell culture incubator, for various time points to be collected post UV to assess dCPDs. For dCPD induction, it is important that the cell culture incubator is not opened for at least 30 min (the first time point post UV) to avoid possible interference from the CO2/O2 ratio, which will be altered upon opening the incubator doors. Cells were collected by scraping and washed once with PBS, which was followed by DNA isolation using a Quick DNA miniprep Kit (Cat. D3024, Zymo Research, Irvine, CA, USA). CPDs were assessed using our previously established DNA ELISA protocols. In brief, ELISA was performed using mouse monoclonal Anti-CPD (Cat. CAC-NM-DND-001, Clone TDM-2, CosmoBio, Inc., Carlsbad, CA, USA). Flat-bottom, 96-well plates (Cat. 2801, Thermo Scientific, Waltham, MA, USA) were coated overnight with 50 µL of protamine sulphate (0.005–0.05%, Cat. P3369, Sigma, St. Lois, MO, USA) in distilled water. After washing twice with water, heat-denatured DNA was plated in triplicates from each sample, into the protamine sulphate coated plate wells (50–100 ng/well in 50 µL PBS) and incubated overnight at 37 °C. The plates were washed 5 times with 200 µL of PBST (PBS containing 0.05% Tween-20 Cat. P7949, Sigma), and blocked with 2–4% FBS in PBST (blocking buffer) for 1 h at room temperature (RT). The plates were incubated with 100 µL of a 1:1000 dilution of anti-CPD antibody in blocking buffer, and incubated for 30 min at 37 °C, which was followed by 5 washes in PBST. Next, the plates were incubated with 100 µL of a 1:2000 dilution of Biotin-F(ab’)2 fragment of anti-mouse IgG(H+L) (Cat. B-2763, Life Technologies) in blocking buffer for 30 min at 37 °C. Detection was conducted using 100 µL of a 1:10,000 dilution of Streptavidin HRP (Cat. 434323, Life Technologies) in 2% FBS for 30 min at 37 °C, which was followed by 5 washes. The plates were washed once with citrate phosphate buffer (24.3 mM citric acid monohydrate, J.T. Baker Cat. 0110-01- and 51.4-mM sodium phosphate dibasic, Sigma Cat. S7907, pH 5.0). The o-phenylene diamine dihydrochloride (Cat. P8287-50TAB, Sigma) was used as a HRP substrate at 400 µg/mL in citrate phosphate buffer for 5–10 min. A measure of 50 µL of 2M H2SO4 was used to stop the reaction as soon as the color developed (5–10 min incubation in substrate), and OD was measured at 490 nm using a Synergy-2 multimode microplate reader (BioTek, Winooski, VT, USA).
For orientation: ELISA stands for enzyme-linked immunosorbent assay.

Experiment [2] has as its system incident CPDs (iCPDs) in pigmented C57BL/6 melanocytes (Mel-a). Briefly: iCPD assessment by DNA ELISA after ssUV, Mel-a. It is filed as cell-based, mouse. The conditions noted are these: for Blockade of iCPDs: 50 µg/mL, 24-h preincubation, 18 kJ/m^2 ssUV; for iCPD inhibition across doses: various doses up to 1 mg/mL, 24 h, Figure 4A.
From the text: as §1

Experiment [3] relates to incident CPDs (iCPDs) in albino C57BL/6 melanocytes (Mel-c). Briefly: iCPD assessment by DNA ELISA after ssUV, Mel-c. The conditions noted are these: various doses up to 1 mg/mL, 24 h, Figure 4B. It counts as cell-based, mouse. From the text:
(§2) For UV exposures, we used a “SOL-UV6 ultraviolet solar simulator” from Newport irradiators. It is equipped with a Xenon arc lamp where the output is varied using the integrated variable attenuator aperture, which provides the ability to vary the output from 10% to 100% of the maximum available solar constants. The output spectrum is flat from 320 nm to 400 nm and no values are below 300 nm. This is abbreviated as “ssUV” for “solar-simulated UV” throughout the text. Various cell types seeded at ~50% confluency, were treated with the AZ and analogs at concentrations mentioned in the data figures for 24–h. Cells at ~80–90% confluency (untreated controls), were washed twice with PBS and exposed to 18 kJ/m^2 of ssUV in minimal amount of PBS (ex. 2 mL PBS in a 60 mm cell culture dish) without any dish lid in place. […] The ssUV apparatus was monitored almost daily using UV meters for any emissions below 300 nm. The dose was decided based upon the 80–90% cell survival post UV exposure. After exposure, one time point was collected immediately to assess iCPDs, whereas more dishes were incubated in cell culture medium, inside the cell culture incubator, for various time points to be collected post UV to assess dCPDs. For dCPD induction, it is important that the cell culture incubator is not opened for at least 30 min (the first time point post UV) to avoid possible interference from the CO2/O2 ratio, which will be altered upon opening the incubator doors. Cells were collected by scraping and washed once with PBS, which was followed by DNA isolation using a Quick DNA miniprep Kit (Cat. D3024, Zymo Research, Irvine, CA, USA). CPDs were assessed using our previously established DNA ELISA protocols. In brief, ELISA was performed using mouse monoclonal Anti-CPD (Cat. CAC-NM-DND-001, Clone TDM-2, CosmoBio, Inc., Carlsbad, CA, USA). […] A measure of 50 µL of 2M H2SO4 was used to stop the reaction as soon as the color developed (5–10 min incubation in substrate), and OD was measured at 490 nm using a Synergy-2 multimode microplate reader (BioTek, Winooski, VT, USA).

For experiment [4], the system named is incident CPDs (iCPDs) in HaCaT cells. Description: iCPD assessment by DNA ELISA after ssUV, HaCaT. It counts as cell-based, human.
From the text: as §2

Experiment [5] has as its system Xpa, Xpc, Mitf, Xrcc1 expression in Mel-a. Description: qPCR expression of NER pathway genes, Mel-a. It counts as cell-based, mouse. Conditions: for NER pathway gene expression post UV exposure: 200 µg/ml, 24 h, then 18 kJ/m2 ssUV, various time points, relative to UV-induced upregulation; for Gene expression of Xpa, Xpc and Mitf (NER pathway) / Gene expression of Xrcc1: 24 h incubation, qPCR; for Gene expression of Xpa, Xpc and Mitf (NER pathway): no UV. As for the experimental part: (§3) Various cell types were collected 24-h post incubation with 200 µg/mL AZ and MBPD, with and without ssUV exposure. RNA was isolated using a Quick-RNA isolation kit (Cat. R1050, Zymo Research). The cDNA was prepared using a High-Capacity cDNA Reverse Transcription Kit (Cat. 4368814, ThermoFisher Scientific). The gene expression of XPA, XPC, and MITF genes was assessed using the following primers. β-actin was used as an internal control for normalizations and data analyses. F1-R1 and F2-R2 represents two primer pairs which were used in the qPCR experiments.
For orientation: Real-time PCR tracks product formation cycle by cycle.

The test system of experiment [6] is Xpa, Xpc, Mitf, Xrcc1 expression in Mel-c. Briefly: qPCR expression of NER pathway genes, Mel-c. It counts as cell-based, mouse. The conditions noted are these: 24 h incubation; for Gene expression of Xpa, Xpc and Mitf (NER pathway): no UV. The procedure:
as §3

For experiment [7], the system named is nitrotyrosine / nitric oxide synthase (NOS) activity in Mel-a melanocytes. Description: Immunofluorescence for nitrotyrosine (marker of NOS activity). It is filed as cell-based, mouse. Conditions: 50 µg/mL, 24–36 h. As for the experimental part:
Posttranslational modification nitrotyrosine was used as a marker of nitric oxide synthase (NOS) activity. Melanocytes were cultured on collagen-coated, glass-bottom dishes (cat. P35G-1.5-14-C, MatTek, Ashland, MA, USA). After various treatments, cells were fixed with 4% formaldehyde for 10 min at RT, washed with PBS, and permeabilized with 0.5% Triton-X in PBS for 10 min. After blocking for non-specific antibody binding using 5% goat serum (Cat. 16210064, ThermoFisher Scientific) and 1% globulin free BSA (Cat. 001-000-161, Jackson ImmunoResearch, West Grove, PA, USA) in 0.1% Triton-x in PBS (blocking buffer) for 2 h at room temperature, cells were incubated with 1:1000 dilution of anti-nitrotyrosine antibody (Cat. A-21285, ThermoFisher Scientific) overnight at 4 °C. Detection was conducted using Alexa Fluor 488 Goat Anti-rabbit IgG (Cat. A-11008, Life Technologies). Imaging was performed using a ZEISS Axio Observer microscope. Approximately 5–10 images per condition, with ~70–100 cells per image, were quantitated for nitrotyrosine fluorescence using ImageJ software.

Consider `COc1cc(CC(C(C)=O)C(C)=O)ccc1O` [AZ, 3-(4-Hydroxy-3-methoxybenzyl)-pentane-2,4-dione], for which the “Blockade of iCPDs” value was ~ 50% in experiment [1] (1 mg/mL); ~ 30% in experiment [2]; ~ 50% in experiment [4] (250 µg/mL, 24 h preincubation). The “iCPD inhibition across doses” value is reported as “minimal effect” in experiment [1], “blocked iCPD generation in a dose-dependent manner” in experiment [2] and “no significant impact” in experiment [3]. For the same compound, in experiment [5], the “NER pathway gene expression post UV exposure” value was “elevated slightly”. Besides, the “Gene expression of Xpa, Xpc and Mitf (NER pathway)” value is given as “upregulated” in experiment [5] and “remained unaffected” in experiment [6]. For the same compound, the “Gene expression of Xrcc1” value in experiment [5] and in experiment [6] was “remained unaffected” each time. Also, the “Amount of nitrotyrosine (NOS activity marker)” value in experiment [7] was “reduced the amount of nitrotyrosine”.

As for `COc1ccc(CC(C(C)=O)C(C)=O)cc1` [MBPD, 3-(4-Methoxy-benzyl)-pentane-2,4-dione], the “Blockade of iCPDs” value in experiment [1] (50 µg/mL, 18 kJ/m^2 ssUV) was ~ 50%; in experiment [2], roughly 50%. In addition, in experiment [1] (Homo sapiens, 10 ug/mL, Figure 3C, read-out: Inhibition of iCPD formation), the inhibition (as a rule, the relative decrease from the control value, in per cent) at 10 µg/mL fell in the range of 30 to 40%. The “iCPD inhibition across doses” value is on record as “dose-dependent manner” in experiment [1], “blocked iCPD generation in a dose-dependent manner” in experiment [2] and “no significant impact” in experiment [3]. Moreover, the “iCPD inhibition” value in experiment [4] (various doses, Supplementary Figure S2A) was “did not show any effect”. The “NER pathway gene expression post UV exposure” value in experiment [5] is given as “elevated slightly”. Also, the “Gene expression of Xpa, Xpc and Mitf (NER pathway)” value in experiment [5] and in experiment [6] was “upregulated” throughout. Also, the “Gene expression of Xrcc1” value in experiment [5] and in experiment [6] was “remained unaffected” each time. Moreover, the “Amount of nitrotyrosine (NOS activity marker)” value in experiment [7] is “reduced the amount of nitrotyrosine”.
